Results published in paper PMC12040169 (PLOS Biology, 2025).

Assay: in vitro
Settings: human, hela cells, % viability

Compound	viability at 28.5 h, 10 µM [%]
CN1CCN(CCC(=O)Nc2cccc(Cl)c2)CC1 [CBK070793C]	108
C/C(=N\NC(=O)c1cccc(Cl)c1)c1ccccc1O [CBK261665]	81.4
CCOC(=O)c1c(NC(=O)CSc2nc[nH]n2)sc2c1CCCCC2 [CBK267231]	90.8
c1ccc(CCNc2c3c(nc4ccccc24)CCC3)cc1 [CBK263693C]	92.2
O=C(N/N=C/c1ccccc1O)c1ccn(Cc2ccc(Cl)cc2)n1 [CBK262770]	91.3
NC(=O)CN1C(=O)CO[C@H]2CN(Cc3cnc4ccccc4c3)C[C@H]21 [CBK289242]	106
COCc1cccc(-c2nccnc2OCC(=O)OC)c1 [CBK106976]	98.7
Oc1n[nH]c2c1CCC2 [CBK260873]	95.4
CS(=O)(=O)Nc1nnc(C(F)(F)F)s1 [CBK038168]	97.6
CN(CC(=O)N1CCC[C@@H]2[C@H]1C/C=C/Cc1ccccc1OCC(=O)N2C)Cc1ccccn1 [CBK292078]	91.5
COc1cc(NC(=S)N2CCN(c3cc(Cl)ccc3C)CC2)cc(OC)c1 [CBK266252]	100
CC1CCC(C(=O)Nc2ccc(C(=O)O)cc2)CC1 (stereo not drawn) [CBK287234]	94.8
CCN(Cc1ccncc1)S(=O)(=O)c1ccc(Cl)c(Cl)c1 [CBK043818]	96.2
COc1cc(C=C2SC(=S)N(CCCCCC(=O)O)C2=O)cc(OC)c1 [CBK297505]	98.1
Cc1ccc(C2CCCN2C(=O)c2ccc(=O)n(CC(=O)Nc3ccc(F)cc3)c2)cc1C (stereo not drawn) [CBK286088]	107
Cn1c(-c2nonc2N)nc2ccccc21 [CBK062642]	94.5
CN1CCC(=NNC(=O)c2ccc(N(Cc3ccccc3)S(C)(=O)=O)cc2)CC1 [CBK262742]	82.4
c1csc(COc2nccnc2-c2cc3ccccc3s2)c1 [CBK106786]	99.5

Compound	viability at 28.5 h, 10 µM [%]
O=C(CSc1nc2ccccc2[nH]1)Nc1cccc(NC(=O)C23CC4CC(CC(C4)C2)C3)c1 [CBK265702]	89.8
O=C1c2ccccc2C(=O)N1CSc1nnc(SCN2C(=O)c3ccccc3C2=O)s1 [CBK263694]	96.9
CN(C)CCNC(=O)c1ccc(-c2cnc3[nH]c(=O)n(C4CCCC4)c3n2)cc1 [CBK064957]	110
COc1cc(Nc2cc(-c3cccc(N)c3)ncn2)cc(OC)c1OC [CBK037713]	117
Cc1ccc(NCC2CCN(Cc3cc(=O)n4ccccc4n3)C2)nc1 (stereo not drawn) [CBK306334]	80.7
CN(C)c1ccc(-c2nccnc2NS(=O)(=O)Cc2cccc(Cl)c2)cc1 [CBK050787]	102
O=C(O)c1[nH]n(-c2ccc(Cl)cc2)c(=O)c1CCO [CBK287079]	101
COc1nccnc1OC1CCN(Cc2ccccc2-c2ccccc2)CC1 [CBK084246]	87.7
CCOC(=O)c1sc(-c2ccccc2)nc1O [CBK074298]	96.9
O=C1CC(NCc2ccccc2)C(=O)N1c1ccc(N2C(=O)CC(NCc3ccccc3)C2=O)cc1 (stereo not drawn) [CBK263963]	88.6
Cc1cccc(NC(=S)N2CCN(Cc3ccc4c(c3)OCO4)CC2)c1C [CBK264919]	82.7
N#Cc1ccc(Oc2ccc(C(=O)NCC(=O)O)cc2)cc1 [CBK286579]	90.1
COc1ccc(CC(=O)NC(CCSC)c2nnc3ccccn23)cc1 (stereo not drawn) [CBK306077]	96
O=C(NCC(O)COc1ccccc1)c1cnn2c(-c3ccccc3)ccnc12 (stereo not drawn) [CBK298320]	99
Cc1nc(C(=O)NC2CCN(C)CC2)ccc1C(=O)O [CBK304262]	95.2
O=C(CO)N1CC2(CCN(CCc3cccc4ccccc34)CC2)c2ccccc21 [CBK137003]	91.8
O=C(CC1C(=O)NCCN1C(=S)Nc1ccccc1)Nc1ccc2c(c1)OCCO2 (stereo not drawn) [CBK267999]	95.9
CC(C)(CSc1ncccn1)NS(=O)(=O)c1ccccc1 [CBK268282]	88.3
